Results: patent US20060100431A1, “Biologically active compounds” (Amura Therapeutics Limited, priority 2002, published 2006)

Key:
[1] = target: Wild-type cruzipain (Trypanosoma cruzi, UniProt P25779); test: Trypanosoma cruzi cruzipain peptidase activity assay (Ki); type: biochemical; details: read-out: Ki, inhibitors of cruzain and cruzipains
Outline: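 Native cruzipain from T. cruzi Dm28 epimastigotes, 2.5 nM, in 100 mM sodium phosphate pH 6.75 with 1 mM EDTA and 10 mM L-cysteine, 25 °C, DMSO <1%. Rates taken from continuous fluorogenic substrate read; Ki by regression assuming reversible pure-competitive inhibition.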

[2] = target: T1, CPB2.8ΔCTE (Leishmania mexicana, UniProt P36400); test: Leishmania mexicana cysteine protease B (CPB) peptidase activity assay (Ki); type: biochemical; details: Ki, inhibitors of Leismania mexicana CPB protease
T1 construct: Wild-type recombinant CPB without the C-terminal extention (i.e. CPB2.8ΔCTE); Dr. Jeremy Mottram (Wellcome Centre for Molecular Parasitology, University of Glasgow)
Outline: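 Apparent Ki was derived by regression of activity against inhibitor concentration, assuming pure-competitive reversible binding. Reaction: 0.25 nM CPB lacking the C-terminal extension, pH 5.5 acetate buffer (1 mM EDTA, 200 mM NaCl, 10 mM DTT), 25 °C, followed by continuous substrate fluorescence.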

T1 sequence (P36400 126-343, stated change not applied): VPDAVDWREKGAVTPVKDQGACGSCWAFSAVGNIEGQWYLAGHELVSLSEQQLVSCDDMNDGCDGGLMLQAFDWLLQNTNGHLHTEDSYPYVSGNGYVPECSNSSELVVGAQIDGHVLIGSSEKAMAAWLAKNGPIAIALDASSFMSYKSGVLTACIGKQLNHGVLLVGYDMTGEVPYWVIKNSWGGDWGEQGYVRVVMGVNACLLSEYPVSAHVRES
Chain of Wild-type cruzipain (P25779 whole entry): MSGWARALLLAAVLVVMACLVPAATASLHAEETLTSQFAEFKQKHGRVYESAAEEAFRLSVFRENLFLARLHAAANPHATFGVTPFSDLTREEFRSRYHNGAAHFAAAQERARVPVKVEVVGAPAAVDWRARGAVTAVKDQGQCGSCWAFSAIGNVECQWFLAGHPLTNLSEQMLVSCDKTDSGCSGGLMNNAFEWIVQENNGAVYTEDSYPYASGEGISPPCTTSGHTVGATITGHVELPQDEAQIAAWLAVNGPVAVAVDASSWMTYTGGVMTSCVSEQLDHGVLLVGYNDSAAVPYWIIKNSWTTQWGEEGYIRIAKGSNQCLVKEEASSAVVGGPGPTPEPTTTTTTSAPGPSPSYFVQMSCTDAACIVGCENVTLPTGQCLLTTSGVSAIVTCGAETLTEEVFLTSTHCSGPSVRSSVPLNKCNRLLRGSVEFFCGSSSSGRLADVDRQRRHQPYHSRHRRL

Row | Structure (SMILES) | Ki [1] [µM] | Ki [2] [µM]
1 | CC(C)C[C@H](NC(=O)c1ccc(N(C)C)cc1)C(=O)N1CC[C@@H]2[C@H]1C(=O)CN2C(=O)c1cccc(OC(F)(F)F)c1 [Example 70, (3aR,6aS)-4-Dimethylamino-N-{(1S)-3-methyl-1-[6-oxo-4-(3-trifluoromethoxy-benzoyl)-hexahydro-pyrrolo[3,2-b]pyrrole-1-carbonyl]-butyl}-benzamide] | < 5 | < 5
2 | CC[C@H](C)[C@H](N)C(=O)N1CC(=O)[C@@H]2[C@H]1CCN2C(=O)[C@H](CC(C)C)NC(=O)c1ccc(N(C)C)cc1 [Example 209, (3aR,6aS)-N-{(1S)-1-[4-((2S,3S)-2-Amino-3-methyl-pentanoyl)-6-oxo-hexahydro-pyrrolo[3,2-b]pyrrole-1-carbonyl]-3-methyl-butyl}-4-dimethylamino-benzamide] | < 5 | < 5
3 | CC(C)C[C@H](NC(=O)c1ccc(N(C)C)cc1)C(=O)N1CC[C@@H]2[C@H]1C(=O)CN2C(=O)CC1CCCCC1 [Example 137, (3aR,6aS)-N-{(1S)-1-[4-(2-Cyclohexyl-acetyl)-6-oxo-hexahydro-pyrrolo[3,2-b]pyrrole-1-carbonyl]-3-methyl-butyl}-4-dimethylamino-benzamide] | < 5 | < 5
4 | CC(C)CCC(=O)N1CC(=O)[C@@H]2[C@H]1CCN2C(=O)[C@H](CC(C)C)NC(=O)c1ccc(C(C)(C)C)cc1 [Example 191, (3aR,6aS)-4-tert-Butyl-N-{(1S)-3-methyl-1-[4-(4-methyl-pentanoyl)-6-oxo-hexahydro-pyrrolo[3,2-b]pyrrole-1-carbonyl]-butyl}-benzamide] | < 5 | < 5
5 | CC(C)C[C@H](NC(=O)c1ccc(N(C)C)cc1)C(=O)N1CC[C@@H]2[C@H]1C(=O)CN2C(=O)N1CCOCC1 [Example 142, (3aR,6aS)-4-Dimethylamino-N-{(1S)-3-methyl-1-[4-(morpholin-4-carbonyl)-6-oxo-hexahydro-pyrrolo[3,2-b]pyrrole-1-carbonyl]-butyl}-benzamide] | < 5 | < 5
6 | CC(C)C[C@H](NC(=O)c1ccc(N(C)C)cc1)C(=O)N1CC[C@@H]2[C@H]1C(=O)CN2C(=O)c1ccc(F)c(F)c1 [Example 116, (3aR,6aS)-N-{(1S)-1-[4-(3,4-Difluoro-benzoyl)-6-oxo-hexahydro-pyrrolo[3,2-b]pyrrole-1-carbonyl]-3-methyl-butyl}-4-dimethylamino-benzamide] | < 5 | < 5
7 | CC(C)C[C@H](NC(=O)c1ccc(N(C)C)cc1)C(=O)N1CC[C@@H]2[C@H]1C(=O)CN2C(=O)[C@@H](N)CC(C)C [Example 150, (3aR,6aS)-N-{(1S)-1-[4-((2S)-2-Amino-4-methyl-pentanoyl)-6-oxo-hexahydro-pyrrolo[3,2-b]pyrrole-1-carbonyl]-3-methyl-butyl}-4-dimethylamino-benzamide] | < 5 | < 5
8 | CC(C)C[C@H](NC(=O)c1ccc(N(C)C)cc1)C(=O)N1CC[C@@H]2[C@H]1C(=O)CN2C(=O)[C@@H](N)[C@@H](C)O [Example 207, (3aR,6aS)-N-{(1S)-1-[4-((2S,3R)-2-Amino-3-hydroxy-butyryl)-6-oxo-hexahydro-pyrrolo[3,2-b]pyrrole-1-carbonyl]-3-methyl-butyl}-4-dimethylamino-benzamide] | < 5 | < 5
9 | CC(C)C[C@H](NC(=O)c1ccc(N(C)C)cc1)C(=O)N1CC[C@@H]2[C@H]1C(=O)CN2C(=O)c1cccnc1 [Example 21, (3aR,6aS)-4-Dimethylamino-N-{(1S)-3-methyl-1-[6-oxo-4-(pyridine-3-carbonyl)-hexahydro-pyrrolo[3,2-b]pyrrole-1-carbonyl]-butyl}-benzamide] | < 5 | < 5
10 | CC(C)C[C@H](NC(=O)c1ccc(C(C)(C)C)cc1)C(=O)N1CC[C@@H]2[C@H]1C(=O)CN2C(=O)c1ccncc1 [Example 6, (3aR,6aS)-4-tert-Butyl-N-{(1S)-3-methyl-1-[6-oxo-4-(pyridine-4-carbonyl)-hexahydro-pyrrolo[3,2-b]pyrrole-1-carbonyl]-butyl}-benzamide] | < 5 | < 5
11 | CCCCCCC(=O)N1CC(=O)[C@@H]2[C@H]1CCN2C(=O)[C@H](CC(C)C)NC(=O)c1ccc(N(C)C)cc1 [Example 136, (3aR,6aS)-4-Dimethylamino-N-[(1S)-1-(4-heptanoyl-6-oxo-hexahydro-pyrrolo[3,2-b]pyrrole-1-carbonyl)-3-methyl-butyl]-benzamide] | < 5 | < 5
12 | CC(C)C[C@H](NC(=O)c1ccc(N(C)C)cc1)C(=O)N1CC[C@@H]2[C@H]1C(=O)CN2C(=O)c1ccc(N)cc1 [Example 50, (3aR,6aS)-N-{(1S)-1-[4-(4-Amino-benzoyl)-6-oxo-hexahydro-pyrrolo[3,2-b]pyrrole-1-carbonyl]-3-methyl-butyl}-4-dimethylamino-benzamide] | < 5 | < 5
13 | CC(C)CC(=O)N1CC(=O)[C@@H]2[C@H]1CCN2C(=O)[C@H](CC(C)C)NC(=O)c1ccc(N(C)C)cc1 [Example 130, (3aR,6aS)-4-Dimethylamino-N-{(1S)-3-methyl-1-[4-(3-methyl-butyryl)-6-oxo-hexahydro-pyrrolo[3,2-b]pyrrole-1-carbonyl]-butyl}-benzamide] | < 5 | < 5
14 | CC(C)C[C@H](NC(=O)c1ccc(N(C)C)cc1)C(=O)N1CC[C@@H]2[C@H]1C(=O)CN2C(=O)[C@H](CO)NC(=O)OCc1ccccc1 [Example 147, (3aS,6aR)-((1S)-2-{4-[(2S)-2-(4-Dimethylamino-benzoylamino)-4-methyl-pentanoyl]-3-oxo-hexahydro-pyrrolo[3,2-b]pyrrole-1-yl}-1-hydroxymethyl-2-oxo-ethyl)-carbamic acid benzyl ester] | < 5 | < 5
15 | Cc1ccc(C(=O)N2CC(=O)[C@@H]3[C@H]2CCN3C(=O)[C@H](CC(C)C)NC(=O)c2ccc(N(C)C)cc2)cc1C [Example 114, (3aR,6aS)-4-Dimethylamino-N-{(1S)-1-[4-(3,4-dimethyl-benzoyl)-6-oxo-hexahydro-pyrrolo[3,2-b]pyrrole-1-carbonyl]-3-methyl-butyl}-benzamide] | < 5 | < 5
16 | CC(C)C[C@H](NC(=O)c1ccc(N(C)C)cc1)C(=O)N1CC[C@@H]2[C@H]1C(=O)CN2C(=O)CC1CC1 [Example 132, (3aR,6aS)-N-{(1S)-1-[4-(2-Cyclopropyl-acetyl)-6-oxo-hexahydro-pyrrolo[3,2-b]pyrrole-1-carbonyl]-3-methyl-butyl}-4-dimethylamino-benzamide] | < 5 | < 5
17 | CC(C)C[C@H](NC(=O)c1ccc(N(C)C)cc1)C(=O)N1CC[C@@H]2[C@H]1C(=O)CN2C(=O)[C@@H](N)CC(C)(C)C [Example 212, (3aR,6aS)-N-{(1S)-1-[4-((2S)-2-Amino-4,4-dimethyl-pentanoyl)-6-oxo-hexahydro-pyrrolo[3,2-b]pyrrole-1-carbonyl]-3-methyl-butyl}-4-dimethylamino-benzamide] | < 5 | < 5
18 | CC(=O)N[C@@H](CCC(C)C)C(=O)N1CC(=O)[C@@H]2[C@H]1CCN2C(=O)[C@H](CC(C)C)NC(=O)c1ccc(N(C)C)cc1 [Example 214, (3aR,6aS)-N-{(1S)-1-[4-((2S)-2-Acetylamino-5-methyl-hexanoyl)-6-oxo-hexahydro-pyrrolo[3,2-b]pyrrole-1-carbonyl]-3-methyl-butyl}-4-dimethylamino-benzamide] | < 5 | < 5
19 | CC(C)C[C@H](NC(=O)c1ccc(C(C)(C)C)cc1)C(=O)N1CC[C@@H]2[C@H]1C(=O)CN2C(=O)c1cccc(Br)c1 [Example 25, (3aR,6aS)-N-{(1S)-1-[4-(3-Bromo-benzoyl)-6-oxo-hexahydro-pyrrolo[3,2-b]pyrrole-1-carbonyl]-3-methyl-butyl}-4-tert-butyl-benzamide] | < 5 | < 5
20 | CC(C)C[C@H](NC(=O)c1ccc(N(C)C)cc1)C(=O)N1CC[C@@H]2[C@H]1C(=O)CN2C(=O)C1CC=CCC1 (stereo partly drawn) [Example 138, (3aR,6aS)-N-{(1S)-1-[4-(Cyclohex-3-enecarbonyl)-6-oxo-hexahydro-pyrrolo[3,2-b]pyrrole-1-carbonyl]-3-methyl-butyl}-4-dimethylamino-benzamide] | < 5 | < 5
21 | CC(C)C[C@H](NC(=O)c1ccc(N(C)C)cc1)C(=O)N1CC[C@@H]2[C@H]1C(=O)CN2C(=O)c1ccc(C(F)(F)F)cc1 [Example 69, (3aR,6aS)-4-Dimethylamino-N-{(1S)-3-methyl-1-[6-oxo-4-(4 trifluoromethyl-benzoyl)-hexahydro-pyrrolo[3,2-b]pyrrole-1-carbonyl]-butyl}-benzamide] | < 5 | < 5
22 | CC(C)C[C@H](NC(=O)c1ccc(N(C)C)cc1)C(=O)N1CC[C@@H]2[C@H]1C(=O)CN2C(=O)c1ccccc1F [Example 62, (3aR,6aS)-4-Dimethylamino-N-{(1S)-1-[4-(2-fluoro-benzoyl)-6-oxo-hexahydro-pyrrolo[3,2-b]pyrrole-1-carbonyl]-3-methyl-butyl}-benzamide] | < 5 | < 5
23 | NCc1cccc(C(=O)N[C@@H](Cc2ccc(O)cc2)C(=O)N2CC[C@@H]3[C@H]2C(=O)CN3C(=O)c2csc3ccccc23)c1 [Example 331, (3aR,6aS)-3-Aminomethyl-N-[(1S)-2-[4-(benzo[b]thiophene-3-carbonyl)-6-oxo-hexahydro-pyrrolo[3,2-b]pyrrole-1-yl]-1-(4-hydroxy-benzyl)-2-oxo-ethyl]-benzamide] | < 5 | < 5
